Measurements as given in PMC2568864, “Chemical Dissection of the Link between Streptozotocin, O-GlcNAc, and Pancreatic Cell Death” (Chemistry & Biology, 2008).

Target: T1, human O-GlcNAcase (hOGA) (Homo sapiens, UniProt O60502)
T1 construct: gene OGA; residues 53–916, GST fusion
T1 sequence (O60502 53-916): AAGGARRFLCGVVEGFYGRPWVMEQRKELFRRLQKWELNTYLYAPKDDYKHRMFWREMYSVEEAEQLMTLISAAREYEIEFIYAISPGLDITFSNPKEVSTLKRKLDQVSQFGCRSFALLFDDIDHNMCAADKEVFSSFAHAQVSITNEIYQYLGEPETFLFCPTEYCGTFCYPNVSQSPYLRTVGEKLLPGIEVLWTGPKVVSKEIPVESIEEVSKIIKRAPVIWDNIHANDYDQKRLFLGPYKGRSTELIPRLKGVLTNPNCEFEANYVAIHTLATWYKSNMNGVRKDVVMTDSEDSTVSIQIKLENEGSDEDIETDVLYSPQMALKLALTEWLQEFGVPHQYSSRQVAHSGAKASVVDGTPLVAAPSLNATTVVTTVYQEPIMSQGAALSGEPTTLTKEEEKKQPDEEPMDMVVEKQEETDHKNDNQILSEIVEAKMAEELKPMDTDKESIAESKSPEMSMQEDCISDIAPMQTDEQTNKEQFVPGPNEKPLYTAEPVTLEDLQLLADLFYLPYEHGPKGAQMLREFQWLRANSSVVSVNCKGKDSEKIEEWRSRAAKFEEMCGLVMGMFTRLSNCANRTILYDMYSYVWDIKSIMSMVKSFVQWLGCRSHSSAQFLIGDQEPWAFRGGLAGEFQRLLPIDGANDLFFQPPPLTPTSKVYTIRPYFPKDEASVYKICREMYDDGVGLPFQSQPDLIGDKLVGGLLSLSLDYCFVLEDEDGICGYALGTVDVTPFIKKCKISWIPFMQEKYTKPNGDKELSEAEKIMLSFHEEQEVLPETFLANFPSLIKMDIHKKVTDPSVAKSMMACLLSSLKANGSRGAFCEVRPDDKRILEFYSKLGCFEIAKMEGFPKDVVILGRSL
Experiment: steady-state kinetics with fluorogenic 4MU-GlcNAc, Lineweaver-Burk, competitive inhibition fit
Format: biochemical

CN(N=O)C(=O)N[C@H]1C(O)O[C@H](CO)[C@@H](O)[C@@H]1O (stereo partly shown) [STZ, streptozotocin]
Ki: 64 ± 3 µM
